Like-named read-outs stand apart in the source and are kept apart here.
Experiments:
SARS-CoV-2 SL5 RNA = assay: Deconvolution of the RNA-binding site within SL5; settings: FIG. 7D
[1] = target: COVID RNA (SARS-CoV-2 RNA SL5 per FIG. 8); assay: FP binding, Kd for COVID RNA
in vitro [2] = settings: human
gene splicing = settings: cited from earlier work
in vitro [3] = settings: human; remark: listed apart in the source
in vitro [4] = settings: human; remark: listed apart in the source
RNA Seq4 […] = assay: FP binding assay, RNA Seq4
Procedure: (§1) All synthetic DNA and RNA oligomers were purchased from Integrated DNA Technologies and reconstituted in nuclease-free water (Invitrogen #AM9932) at 1 mM. The concentration of the oligonucleotides at ˜0.1 mM was calibrated with the A260 value measured by a NanoDrop ND-1000 (Thermo, Waltham, MA, USA) and the predicted extinction coefficient (http://www.oligoevaluator.com) using Lamber-Beer's Law. The risdiplam analogues (1 mM in DMSO) were diluted in 2× assay buffer (40 mM HEPES, 200 mM NaCl for RNA; 40 mM HEPES, 200 mM NaCl, 1 mM MgCl2 for DNA) to make a 1 μM 2× working solution.
(§2) A 1:2 dilution series (8 points) of each oligonucleotide was prepared in 20-30 μL water to desired concentrations (i.e., 1-128 μM). 20-30 μL 2× working solution containing the 2× assay buffer and the small-molecule ligand was added to each oligonucleotide sample in 1:1 (v/v) and mixed by pipetting for 4 times. For fluorescence polarization measurement, 20 μL of the above 1× working solution was transferred into a 384-well, black, F-bottom microplates (Greiner Bio-One) in duplicates or triplicates. The plate was equilibrated at room temperature for 5 min before being read using a microplate reader (SYNERGY H1, BioTek; Excitation/Emission=360/460 nm) at 25° C. For compound SMN-C5, a competitive binding assay was employed to measure an apparent Kd. SMN-C5 was 1:2 serial diluted for 10 concentration points starting at 750 μM in DMSO. A mixture of SMN-C2 (0.5 μM) and DNA Seq6 (25 μM) in 1× assay buffer was prepared and incubated at room temperature for 10 minutes. 3 μL of SMN-C5 solution at each concentration was added to a 42 μL SMN-C2/DNA Seq6 mixture and incubated at room temperature for 10 minutes. The mixture was then transferred into a microplate (20 μL each well) in duplicates for fluorescence polarization readout. The experimental data were analyzed using Prism 8 software (Graphpad Software, San Diego, CA, USA).

SMN2 exon 7 splicing = assay: Cell-based SMN2 splicing assay in 293T cells (minigene); set-up: species or system human; settings: for EC50: Homo sapiens, HEK-293T
[5] = target: DNA Seq6 (UGAAGGAAGGU as deoxyribonucleotides); assay: FP binding assay, DNA Seq6; settings: footnote c: FP assay for DNA Seq6; range = 95% CI; read-out: Kd
Procedure: as §1, §2

RNA Seq6 UGAAGGAAGGU = assay: Fluorescence polarization (FP) binding assay, RNA Seq6
Procedure: as §1, §2

[6] = tested on: seq 1 (GAUGGAGAG), contains the AUG start codon; assay: FP binding assay, SARS-CoV-2 seq 1 (start codon)
seq 1-RC = assay: FP binding assay, reverse complement of seq 1
DNA Seq6 = assay: Competitive FP binding assay (displacement of SMN-C2 from DNA Seq6); settings: footnote c: FP assay for DNA Seq6; competition with SMN-C2 (0.5 μM) and DNA Seq6 (25 μM); read-out: Kd (apparent, competitive FP)
Procedure: as §2

[7] = target: dsRNA Seq18 (5′ splice site of SMN2 exon 7 and U1 snRNA duplex); settings: NMR chemical shift assay; cited from earlier work
5′-biotinylated RNA Seq4 = assay: Surface plasmon resonance (SPR) assay, RNA Seq4; format: binding; settings: footnote b: SPR assay for RNA Seq4
Procedure: SPR experiments were performed on a Biacore T200 (GE Healthcare) instrument at 25° C. using streptavidin pre-coated SA sensor chips (GE Healthcare). The running buffer composed of 10 mM HEPES, 100 mM NaCl, 0.05% Tween 20 (w/v), 5 mM EDTA, 0.1% (v/v) DMSO at pH 6.8 was prepared freshly, filtered through the […] PVDF membrane prior to use. 5′-biotinylated RNA Seq4 was purchased from GenScript and dissolved in nuclease-free water to a concentration of 100 μM. For immobilization of the biotinylated RNA, the sensor chip was firstly conditioned with 3 consecutive 1 min injections of high salt solution (50 mM NaOH, 1M NaCl) at a flow rate of […]. Next, the biotinylated RNA was diluted 1000× in running buffer (100 nM) and applied over the streptavidin sensor chip surface at a flow rate of 10 μL/min to achieve immobilization level of about 800 RU. Finally, alkyne-PEG-biotin (50 μM in running buffer) was injected (1 min, […]) to block remaining streptavidin surface binding sites. The kinetics analysis was performed following the BiaControl Software Wizard Kinetics protocol. […] All monitored resonance signals were subtracted with signals from a non-binding reference channel. Kinetic values (Kd, ka, kd) were calculated using the BiaEvaluation Software Binding Affinity protocol with 1:1 fitting. […]

[8] = target: von Hippel-Lindau (VHL) E3 ligase (Homo sapiens, UniProt P40337); settings: cited from earlier work
[9] = tested on: SMN2 gene vs forkhead box M1 (FoxM1) gene; settings: cited from earlier work
[10] = tested on: SARS-CoV-2 minigene mRNA (5′ and 3′ UTRs, Gaussia luciferase); assay: SARS-CoV-2 minigene HEK293 cell model, RT-qPCR of viral minigene mRNA; format: cell-based; settings: 24 hours
SARS-CoV-2 5′ UTR = SARS-CoV-2 5′ UTR expressing 293T cells (Gaussia luciferase cassette), RNA reduction; format: cell-based
[11] = cell-based SMN2 splicing assay in 293T cells, read-out: SMN2 EC50

von Hippel-Lindau (VHL) E3 ligase, sequence (P40337 54-213 limits assumed, species assumed): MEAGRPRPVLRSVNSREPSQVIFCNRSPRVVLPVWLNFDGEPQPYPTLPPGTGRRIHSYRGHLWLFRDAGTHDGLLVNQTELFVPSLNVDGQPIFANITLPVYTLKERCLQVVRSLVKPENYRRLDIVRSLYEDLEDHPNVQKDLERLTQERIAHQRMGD
von Hippel-Lindau (VHL) E3 ligase, sequence (Q15369 17-112 partner limits assumed, species assumed): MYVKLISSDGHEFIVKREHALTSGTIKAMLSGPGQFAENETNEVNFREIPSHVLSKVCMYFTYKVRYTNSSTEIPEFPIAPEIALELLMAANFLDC
von Hippel-Lindau (VHL) E3 ligase, sequence (Q15370 whole entry partner, species assumed): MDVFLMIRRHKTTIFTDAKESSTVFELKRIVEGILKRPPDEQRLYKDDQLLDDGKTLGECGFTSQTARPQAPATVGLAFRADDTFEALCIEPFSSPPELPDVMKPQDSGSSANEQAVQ

For `O=c1oc2cc(N3CCNCC3)ccc2cc1-c1cn2ccc(F)cc2n1` [Compound C30, 3-(7-fluoroimidazo[1,2-a]pyridin-2-yl)-7-(piperazin-1-yl)-2H-chromen-2-one], the “binding site within SL5” value (SARS-CoV-2 SL5 RNA) was “selectively binds to the RNA structure containing the bulged G in SL5”, the Kd ([1]; Table 3) was 0.21 ± 0.04 µM and the Kd ([1]; Table 4) was 0.21 ± 0.4 µM.

For `CCN1CCN(c2cc(C)c3nc(-c4cc5c(C)nc(C)cn5n4)cc(=O)n3c2)CC1` [Compound C3, 2-(4,6-dimethylpyrazolo[1,5-a]pyrazin-2-yl)-7-(4-ethylpiperazin-1-yl)-9-methyl-4H-pyrido[1,2-a]pyrimidin-4-one, reference compound], the CC50 (in vitro [2]) is listed as > 30 µM, the “number of genes whose splicing is significantly affected” value (gene splicing) is listed as 13 genes and the CC50 (in vitro [3]) is listed as > 30 µM. The CC50 (in vitro [4]) was > 30 µM.

In the case of `Cc1cn2cc(-c3cc4ccc(N5CCN(CCNC(=O)OC(C)(C)C)[C@@H](C)C5)cc4oc3=O)nc2c(C)n1` [Compound C6, (S)-tert-butyl(2-(4-(3-(6,8-dimethylimidazo[1,2-a]pyrazin-2-yl)-2-oxo-2H-chromen-7-yl)-2-methylpiperazin-1-yl)ethyl)carbamate], the Kd (RNA Seq4 […]) is reported as 37.5 ± 14 µM, the EC50 (SMN2 exon 7 splicing; [11]) is reported as > 8 µM and the “splicing modulation in cells” value (SMN2 exon 7 splicing; cellular SMN2 splicing assays) is reported as “without showing any observable splicing modulation”. The Kd ([1]; Table 3) was 3 ± 0.4 µM, the Kd ([1]; Table 4) was 3.03 ± 0.4 µM and the Kd [5] was 4 ± 0.3 µM. The “reduction of binding to RNA Seq6 by the Boc group” value (RNA Seq6 UGAAGGAAGGU; Table 1 RNA Seq6 (SMN-C2) vs Table 2 entry 6) was ~3 fold and the Kd (RNA Seq6 UGAAGGAAGGU; footnote d: FP assay for RNA Seq6, read-out: Kd) was 51.2 ± 4.9 µM.

For `CC1(C)CC(Oc2ccc(-c3ccc(-c4cn[nH]c4)cc3O)nn2)CC(C)(C)N1` [branaplam], the “number of genes whose splicing is significantly affected” value (gene splicing) is listed as 36 genes.

For `Cc1cn2cc(-c3cc4ccc(N5CCN[C@@H](C)C5)cc4oc3=O)nc2c(C)n1` [Compound C4, (S)-3-(6,8-dimethylimidazo[1,2-a]pyrazin-2-yl)-7-(3-methylpiperazin-1-yl)-2H-chromen-2-one, reference compound], the Kd (RNA Seq4 […]) was 25.4 ± 7.3 µM, the “binding to seq 1” value [6] was “preferentially binds to seq 1” and the EC50 (SMN2 exon 7 splicing; Table 3, read-out: SMN2 Splicing EC50) was 0.0139 ± 0.0026 µM. It also gave an EC50 (SMN2 exon 7 splicing; [11]) of 0.014 ± 0.003 µM, a Kd ([1]; Table 3) of 1.3 ± 0.3 µM and a Kd ([1]; Table 4) of 1.3 ± 0.3 µM. For the same compound, the Kd [5] was 2.9 ± 0.3 µM, the CC50 (in vitro [4]) was > 13 µM and the “binding to seq 1-RC” value (seq 1-RC) was “does not bind”.

For `Cc1cn2cc(-c3cc(=O)n4cc(N5CCN(C)CC5)ccc4n3)cc(F)c2n1` [SMN-C5, 2-(8-fluoro-2-methylimidazo[1,2-a]pyridin-6-yl)-7-(4-methylpiperazin-1-yl)-4H-pyrido[1,2-a]pyrimidin-4-one], the Kd (DNA Seq6) is listed as 5.8 ± 2.5 µM, the EC50 (SMN2 exon 7 splicing; [11]) is listed as 0.059 ± 0.009 µM and the Kd [7] is listed as 28 ± 9 µM. The Kd (5′-biotinylated RNA Seq4) was 8 µM.

For `Cc1cc([C@H](C(=O)N2C[C@H](O)C[C@H]2C(=O)N[C@@H](CC(=O)N2CCC(C#Cc3ccc(C(=O)N[C@H]4C(C)(C)[C@H](Oc5ccc(C#N)c(Cl)c5)C4(C)C)cc3)CC2)c2ccccc2)C(C)C)on1` [ARD-266], the Kd [8] is listed as “micromolar”.

For `CCc1nc(C)cn2nc(-c3cc(=O)n4cc(C5CCN(C)CC5)cc(C)c4n3)cc12` [RG-7800], the “sensitivity of SMN2 gene compared to FoxM1” value [9] is listed as ~10 times.

In the case of `CCOC(=O)C1=C(Nc2ccccc2)S/C(=C\c2ccc(OCCOCCn3cc(COCCOCCOCCOCCN4CCN(c5ccc6cc(-c7cn8ccc(F)cc8n7)c(=O)oc6c5)CC4)nn3)c(O)c2)C1=O` [Compound C47], the “reduction of viral minigene mRNA level” value ([10]; 25 μM, normalized with GAPDH) is reported as ~50%, the “effect on RNA level (RT-qPCR)” value ([10]; different concentrations) is reported as “reduce the RNA level in a dose-dependent manner” and the “maximum potency / activity (RNA reduction level)” value (SARS-CoV-2 5′ UTR) is reported as “between those of C64 and C65”.
